# Experimental data taken from patent US10385103B2, “Cell-permeable (ICP)-SOCS3 recombinant protein and uses thereof” (CELLIVERY THERAPEUTICS, INC., priority 2014, dated 2019).
# System: RAW 264.7 cells
# Assay: Quantitative cell-permeability of FITC-labeled aMTD- or rPeptide-fused CRA recombinant proteins (flow cytometry)
# Assay type: cell-based
# How it was run: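 Uptake of fluorescently labeled, peptide-fused cargo proteins was quantified by flow cytometry (Guava, Millipore) and analyzed in FlowJo software. RAW 264.7 cells received 10 μM FITC-labeled protein for 1 hour at 37° C., were rinsed three times with cold PBS, and were trypsinized with 0.25% tripsin/EDTA for 20 minutes at 37° C. to remove bound protein before measurement. Permeability was expressed relative to reference proteins.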
# [1] = cell-permeability of aMTD-fused CRA recombinant protein relative to negative control (A: rP38)
# [2] = cell-permeability of aMTD-fused CRA recombinant protein relative to reference CPP (B: MTM12)
# [3] = cell-permeability of aMTD-fused CRA recombinant protein relative to reference CPP (C: MTD85)
# [4] = cell-permeability relative to negative control rP38 (A type), aMTD-fused CRA recombinant protein, 10 μM FITC-labeled, 1 hour, 37° C., RAW 264.7 cells
# [5] = cell-permeability relative to reference CPP MTD85 (C type), aMTD-fused CRA recombinant protein, 10 μM FITC-labeled, 1 hour, 37° C., RAW 264.7 cells
# [6] = cell-permeability relative to reference CPP MTM12 (B type), aMTD-fused CRA recombinant protein, 10 μM FITC-labeled, 1 hour, 37° C., RAW 264.7 cells
# [7] = relative cell-permeability of aMTD vs reference A (not defined)
Substance,Relative Ratio (Fold) A [1],Relative Ratio (Fold) B [2],Relative Ratio (Fold) C [3],Relative Ratio (Fold) A [4],Relative Ratio (Fold) C [5],Relative Ratio (Fold) B [6],Relative Ratio (Fold) A [7],Relative Ratio (Fold) B (relative cell-permeability of aMTD vs reference CPP B: MTM12),Relative Ratio (Fold) C (relative cell-permeability of aMTD vs reference CPP C: MTD85)
847 (LVAIVVLPAVAP; Amino acid Sequence of aMTD847) [compound 847],50.2 Fold,33.4 Fold,16.9 Fold,–,–,–,–,–,–
848 (AVAIVVLPAVAP; Amino acid Sequence of aMTD848) [compound 848],10.0 Fold,6.7 Fold,3.4 Fold,–,–,–,–,–,–
849 (AVILLAPLIAAP; Amino acid Sequence of aMTD849) [compound 849],8.3 Fold,4.8 Fold,2.9 Fold,–,–,–,–,–,–
850 (LVIALAAPVALP; Amino acid Sequence of aMTD850) [compound 850],8.8 Fold,5.9 Fold,3.0 Fold,–,–,–,–,–,–
851 (VLAVVLPAVALP; Amino acid Sequence of aMTD851) [compound 851],96.6 Fold,64.7 Fold,32.7 Fold,–,–,–,–,–,–
852 (VLAVAAPAVLLP; Amino acid Sequence of aMTD852) [compound 852],84.6 Fold,56.6 Fold,28.6 Fold,–,–,–,–,–,–
863 (AAVVLLPIIAAP; Amino acid Sequence of aMTD863) [compound 863],13.8 Fold,9.3 Fold,4.7 Fold,–,–,–,–,–,–
865 (AVLVIAVPAIAP; Amino acid Sequence of aMTD865) [compound 865],11.3 Fold,7.5 Fold,3.8 Fold,–,–,–,–,–,–
867 (ALLVVIAPLAAP; Amino acid Sequence of aMTD867) [compound 867],13.2 Fold,8.8 Fold,4.4 Fold,–,–,–,–,–,–
868 (VLVAAILPAAIP; Amino acid Sequence of aMTD868) [compound 868],14.9 Fold,10.0 Fold,5.0 Fold,–,–,–,–,–,–
870 (VLVAAVLPIAAP; Amino acid Sequence of aMTD870) [compound 870],16.6 Fold,11.1 Fold,5.6 Fold,–,–,–,–,–,–
872 (VLAAAVLPLVVP; Amino acid Sequence of aMTD872) [compound 872],–,–,–,7.3 Fold,2.5 Fold,4.9 Fold,–,–,–
875 (AIAIVVPAVAVP; Amino acid Sequence of aMTD875) [compound 875],13.8 Fold,9.2 Fold,4.7 Fold,–,–,–,–,–,–
878 (IVALVAPAAVVP; Amino acid Sequence of aMTD878) [compound 878],10.3 Fold,6.9 Fold,3.5 Fold,–,–,–,–,–,–
881 (AALIVVPAVAVP; Amino acid Sequence of aMTD881) [compound 881],12.7 Fold,8.5 Fold,4.3 Fold,–,–,–,–,–,–
882 (AIALVVPAVAVP; Amino acid Sequence of aMTD882) [compound 882],35.0 Fold,23.4 Fold,11.8 Fold,–,–,–,–,–,–
883 (LAIVPAAIAALP; Amino acid Sequence of aMTD883) [compound 883],–,–,–,3.0 Fold,1.0 Fold,2.0 Fold,–,–,–

Substance,Relative Ratio (Fold) A [1],Relative Ratio (Fold) B [2],Relative Ratio (Fold) C [3],Relative Ratio (Fold) A [4],Relative Ratio (Fold) C [5],Relative Ratio (Fold) B [6],Relative Ratio (Fold) A [7],Relative Ratio (Fold) B (relative cell-permeability of aMTD vs reference CPP B: MTM12),Relative Ratio (Fold) C (relative cell-permeability of aMTD vs reference CPP C: MTD85)
885 (LVAIAPAVAVLP; Amino acid Sequence of aMTD885) [compound 885],28.3 Fold,19.0 Fold,9.6 Fold,–,–,–,–,–,–
887 (VLAVAPAVAVLP; Amino acid Sequence of aMTD887) [compound 887],7.7 Fold,5.1 Fold,2.6 Fold,–,–,–,–,–,–
888 (ILAVVAIPAAAP; Amino acid Sequence of aMTD888) [compound 888],71.0 Fold,47.5 Fold,24.0 Fold,–,–,–,–,–,–
889 (ILVAAAPIAALP; Amino acid Sequence of aMTD889) [compound 889],30.3 Fold,20.3 Fold,10.3 Fold,–,–,–,–,–,–
891 (ILAVAAIPAALP; Amino acid Sequence of aMTD891) [compound 891],44.7 Fold,29.9 Fold,15.1 Fold,–,–,–,–,–,–
893 (VIAIPAILAAAP; Amino acid Sequence of aMTD893) [compound 893],–,–,–,7.0 Fold,2.4 Fold,4.7 Fold,–,–,–
895 (AIIIVVPAIAAP; Amino acid Sequence of aMTD895) [compound 895],60.8 Fold,40.7 Fold,20.6 Fold,–,–,–,–,–,–
896 (AILIVVAPIAAP; Amino acid Sequence of aMTD896) [compound 896],57.5 Fold,38.5 Fold,19.4 Fold,–,–,–,–,–,–
897 (AVIVPVAIIAAP; Amino acid Sequence of aMTD897) [compound 897],11.2 Fold,7.5 Fold,3.8 Fold,11.2 Fold,3.8 Fold,7.5 Fold,–,–,–
899 (AVVIALPAVVAP; Amino acid Sequence of aMTD899) [compound 899],164.2 Fold,109.9 Fold,55.5 Fold,–,–,–,164.2 Fold,109.9 Fold,55.5 Fold
900 (ALVAVIAPVVAP; Amino acid Sequence of aMTD900) [compound 900],34.3 Fold,22.9 Fold,11.6 Fold,–,–,–,–,–,–
901 (ALVAVLPAVAVP; Amino acid Sequence of aMTD901) [compound 901],7.7 Fold,5.1 Fold,2.6 Fold,–,–,–,–,–,–
902 (ALVAPLLAVAVP; Amino acid Sequence of aMTD902) [compound 902],7.6 Fold,5.1 Fold,2.6 Fold,–,–,–,–,–,–
904 (AVLAVVAPVVAP; Amino acid Sequence of aMTD904) [compound 904],106.7 Fold,70.8 Fold,35.8 Fold,–,–,–,105.7 Fold,–,–
905 (AVIAVAPLVVAP; Amino acid Sequence of aMTD905) [compound 905],44.0 Fold,29.5 Fold,14.9 Fold,–,–,–,–,–,–
906 (AVIALAPVVVAP; Amino acid Sequence of aMTD906) [compound 906],–,–,–,6.8 Fold,2.3 Fold,4.6 Fold,–,–,–
910 (VAALLPAVVVAP; Amino acid Sequence of aMTD910) [compound 910],149.5 Fold,99.4 Fold,50.2 Fold,–,–,–,–,–,–
